The record followed here is BindingDB's records for doi:10.1021/jm00392a002 (1987).

Non-standard residues stand in square brackets, D forms with d. Residues, ends and D or L forms follow the SMILES beside them. ξ: configuration not given here. Met(O) = CS(=O)CC[C@H](N)C(=O)O; ξA = CC(N)C(=O)O; Sar = CNCC(=O)O

The test addresses Delta-type opioid receptor (Cavia porcellus). The test is described as follows: Evaluated for the inhibition of [3H]DADLE binding to Opioid receptor delta 1 of guinea pig brain.
The molecule `C[C@@H](NC(=O)[C@@H](N)Cc1ccc(O)cc1)C(=O)N[C@@H](Cc1ccccc1)C(=O)NCC(N)=O` (H-Y[dA]FG-NH2) yielded an IC50 of 818 nM.
For the molecule `CC(NC(=O)[C@H](Cc1ccccc1)NC(=O)[C@H](CC[S+](C)[O-])NC(=O)[C@@H](N)Cc1ccc(O)cc1)C(N)=O` (stereo partly specified) (H-Y[Met(O)]F[ξA]-NH2), the half-inhibitory concentration (IC50) was found to be 900 nM.
In the case of `CN(CC(N)=O)C(=O)[C@H](Cc1ccccc1)NC(=O)[C@H](CC[S+](C)[O-])NC(=O)[C@@H](N)Cc1ccc(O)cc1` (stereo partly specified) (H-Y[Met(O)]F[Sar]-NH2) it was 440 nM; in that of `CN(CC(=O)O)C(=O)[C@H](Cc1ccccc1)NC(=O)[C@H](CC[S+](C)[O-])NC(=O)[C@@H](N)Cc1ccc(O)cc1` (stereo partly specified) (H-Y[Met(O)]F[Sar]-OH), 2120 nM.
For the molecule `COC(=O)CN(C)C(=O)[C@H](Cc1ccccc1)NC(=O)[C@H](CC[S+](C)[O-])NC(=O)[C@H](Cc1ccc(O)cc1)N=C(N)N` (stereo partly specified), the IC50 came out at 150 nM.
In the case of `COC(=O)CN(C)C(=O)[C@H](Cc1ccccc1)NC(=O)[C@H](CC[S+](C)[O-])NC(=O)[C@@H](N)Cc1ccc(O)cc1` (stereo partly specified) (H-Y[Met(O)]F[Sar]-OMe) it was 510 nM.
